Measurements published in patent US6706267B1, “Glucosamine and egg for reducing inflammation” (Arkion Life Sciences LLC, priority 1999, dated 2004).
Marks after values point to notes of the source that are not given here.

Legend:
Assay type in all cases: in vivo
[1] = test system: established rat adjuvant arthritis; test: Rat established adjuvant arthritis model: paw edema; conditions: for % Chg (paw edema vs Control Adjuvant) / Day 14-Mean Paw Edema (ml ± SE) / Day 22-Mean Paw Edema (ml ± SE) / Day 30-Mean Paw Edema (ml ± SE): oral, rat
Source text: (§1) To assess the synergistic antiarthritic effect of Glucosamine hydrochloride and the DCV hyperimmune egg in the established rat adjuvant arthritis, a chronic animal model of inflammation.

[2] = test system: plasma fibrinogen; test: Rat established adjuvant arthritis model: plasma fibrinogen levels
Source text: as §1

[3] = test system: established rat adjuvant arthritis; test: Rat adjuvant arthritis model: histomorphologic observations, tibiotarsal joint; parameters: scale not given here; conditions: for Ankylosis (score) / Erosion, Cartliage (score) / Hyperostosis (score) / Inflammation, periarticular (score) / Osteolysis (score) / Pannus, Cartliage (score): Tibiotarsal Joint (H&E); for Erosion, Cartilage (score): Tibiotarsal Joint (PAS)
Source text: as §1

Row | SMILES | % Chg (paw edema vs Control Adjuvant) ([1]; Day 14) | Day 14-Mean Paw Edema (ml ± SE) ([1]; Day 14) | % Chg (paw edema vs Control Adjuvant) ([1]; Day 22) | Day 22-Mean Paw Edema (ml ± SE) ([1]; Day 22) | % Chg (paw edema vs Control Adjuvant) ([1]; Day 30) | Day 30-Mean Paw Edema (ml ± SE) ([1]; Day 30) | % Δ from ctrl (plasma fibrinogen) ([2]; Day 23, oral) | Mean Plasma Fibrinogen Levels (mg/dl ± SE) ([2]; Day 23, oral) | % Δ from ctrl (plasma fibrinogen) ([2]; Day 30, oral) | Mean Plasma Fibrinogen Levels (mg/dl ± SE) ([2]; Day 30, oral) | Ankylosis (score) ([3]; Day 22) | Erosion, Cartliage (score) ([3]; Day 22) | Hyperostosis (score) ([3]; Day 22) | Inflammation, periarticular (score) ([3]; Day 22) | Osteolysis (score) ([3]; Day 22) | Pannus, Cartliage (score) ([3]; Day 22) | Ankylosis (score) ([3]; Day 30) | Erosion, Cartliage (score) ([3]; Day 30) | Hyperostosis (score) ([3]; Day 30) | Inflammation, periarticular (score) ([3]; Day 30) | further results
1 | Cl.N[C@H]1C(O)O[C@H](CO)[C@@H](O)[C@@H]1O (some centres unmarked) [GLU-250, Glucosamine hydrochloride] | −15% | 1.1 ± 0.3, n = 7 ml | −16% | 1.6 ± 0.3, n = 7 ml | +48* % | 3.1 ± 0.2, n = 5 ml | −2% | 803 ± 39 mg/dL | −28% | 487 ± 112 mg/dL | 3.5 | 2.0 | 3.0 | 3.5 | 1.5 | 2.0 | 4.0 | 4.0 | 3.5 | 4.0 | effect on paw edema, in words ([1]; day 30, severe polyarthritis): ineffectiveness; effect on paw edema, in words ([1]; days 14 and 22): inhibitory effect; % Δ from ctrl (plasma fibrinogen) ([2]; Day 16, oral): +18%; Mean Plasma Fibrinogen Levels (mg/dl ± SE) ([2]; Day 16, oral): 735 ± 44 mg/dL; Osteolysis (score) ([3]; Day 30): 3.5; Pannus, Cartliage (score) ([3]; Day 30): 4.0; Erosion, Cartilage (score) ([3]; Day 22): 2.0; Erosion, Cartilage (score) ([3]; Day 30): 4.0
2 | COc1ccc2c(c1)c(CC(=O)O)c(C)n2C(=O)c1ccc(Cl)cc1 [Indo, Indomethacin] | −8% | 1.2 ± 0.4, n = 6 ml | −37% | 1.2 ± 0.1, n = 6 ml | −86* % | 0.3 ± 0.1, n = 5 ml | −28% | 617 ± 72 mg/dL | −46* % | 366 ± 48 mg/dL | 1.5/1.5 | 1.5 | 3.0 | 3.5/3.5 | 2.5 | 1.5 | 1.5/1.5 | 2.5 | 2.0 | 3.5/3.5 | percent inhibition of fibrinogen levels ([2]; day 30): 46%; Osteolysis (score) ([3]; Day 30): 1.0; Pannus, Cartliage (score) ([3]; Day 30): 2.5; Erosion, Cartilage (score) ([3]; Day 22): 1.5; Erosion, Cartilage (score) ([3]; Day 30): 2.5
